For one compound, MIC, LD50 and IC50 results are on record in patent US20100168421A1, “A NEW PEPTIDE DEFORMYLASE INHIBITOR COMPOUND AND MANUFACTURING PROCESS THEREOF” (priority 2007, published 2010).

Converted amounts (≈) assume the structure as drawn. Some results are limits rather than exact numbers.

Data set [1] concerns Streptococcus Pneumoniae Pen NS. Put plainly: MIC microdilution, S. Pneumoniae Pen NS. Type of data set: cell-based. The conditions noted are these: microdilution, Mueller-Hinton Broth, 37° C., 24 hours, read-out: MIC Streptococcus Pneumoniae Pen NS. The protocol:
(§1) Minimum inhibitory concentrations (MICs) were determined using the microdilution method in 96-well format plates. Each of the compounds of Examples was dissolved in dimethyl sulfoxide to a concentration of 2 mg/mL and stored at 4° C. until used. They were diluted in Mueller-Hinton Broth (MHB) and used for MIC determination. The range of concentrations tested was […] final concentration using a two-fold dilution system. Plates were incubated at 37° C. and MIC were recorded after 24 hours of incubation for bacteria.
(§2) Linezolid and vancomycin were used as standard antibiotics, respectively.

Another data set relates to Streptococcus pyogenes. Nature of the data set: MIC microdilution, S. pyogenes. The data set is classed as cell-based. To be noted: microdilution, Mueller-Hinton Broth, 37° C., 24 hours, read-out: MIC Streptococcus pyogenes. The protocol: as §1, §2
Data set [2] in a line: Acute toxicity study in mice. To be noted: mouse, in vivo, po, 4000 mg/kg; ICR mice, orally, observed for 14 days. The procedure: The acute toxicity of the compounds of Example 5, 17 and 22 were tested using several groups of ICR mice each of 6 mice.
For data set [3], the target named is PDF enzyme (Streptococcus pyogenes serotype M1, UniProt P68771). Put plainly: PDF/FDH coupled enzyme assay, Streptococcus pyogenes. To be noted: PDF/FDH coupled assay, substrate fMAS, absorption at 340 nm; read-out: IC50 Streptococcus pyogenes. Type of data set: biochemical.
Data set [4] deals with Vancomycin-resistant Enterococcus faecium. Put plainly: MIC microdilution, VR E. faecium. The data set is classed as cell-based. The conditions noted are these: microdilution, Mueller-Hinton Broth, 37° C., 24 hours, read-out: MIC Vancomycin-resistant Enterococcus faecium. The protocol:
as §1, §2

Data set [5] deals with T1, PDF enzyme (Streptococcus pneumoniae serotype 4, UniProt Q9F2F0).
T1 sequence (Q9F2F0 1-203): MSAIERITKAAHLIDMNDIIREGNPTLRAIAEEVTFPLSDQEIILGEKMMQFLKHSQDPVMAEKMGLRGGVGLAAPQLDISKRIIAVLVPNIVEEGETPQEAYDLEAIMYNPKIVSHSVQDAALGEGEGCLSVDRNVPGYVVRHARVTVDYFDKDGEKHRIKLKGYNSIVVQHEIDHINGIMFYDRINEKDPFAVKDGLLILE
Put plainly: PDF/FDH coupled enzyme assay, Streptococcus Pneumoniae. The conditions noted are these: substrate fMAS, absorption at 340 nm. The data set is classed as biochemical.

In data set [6] the test system is Vancomycin-resistant Enterococcus faecalis. Put plainly: MIC microdilution, VR E. faecalis. The data set is classed as cell-based. To be noted: microdilution, Mueller-Hinton Broth, 37° C., 24 hours, read-out: MIC Vancomycin-resistant Enterococcus faecalis. The procedure:
as §1, §2

The subject of data set [7] is Streptococcus Pneumoniae Pen S. Put plainly: MIC microdilution, S. Pneumoniae Pen S. To be noted: microdilution, Mueller-Hinton Broth, 37° C., 24 hours, read-out: MIC Streptococcus Pneumoniae Pen S. Type of data set: cell-based. The procedure: as §1, §2
In data set [8] the target is PDF enzyme (Escherichia coli, UniProt P0A6K3). Put plainly: PDF/FDH coupled enzyme assay, E. coli. The data set is classed as biochemical. To be noted: PDF/FDH coupled assay, substrate fMAS, absorption at 340 nm; read-out: IC50 Escherichia coli. The procedure:
Activities of PDF enzyme for E. coli and S. aureus were determined using PDF/FDH coupled assay. In this coupled assay, the formate released by PDF from its substrate formyl-Methionine-Alanine-Serine (fMAS) is oxidized by coupling enzyme formate dehydrogenase (FDH), reducing one molecule of NAD^+ to NADH, which is measured absorption at 340 nm.

Sequence of PDF enzyme (Escherichia coli, UniProt P0A6K3) (P0A6K3 whole entry): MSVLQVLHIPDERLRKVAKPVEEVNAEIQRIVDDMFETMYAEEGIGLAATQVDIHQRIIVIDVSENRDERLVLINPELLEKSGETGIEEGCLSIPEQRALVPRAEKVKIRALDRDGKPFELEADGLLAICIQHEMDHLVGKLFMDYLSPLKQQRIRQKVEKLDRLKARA
Sequence of PDF enzyme (Streptococcus pyogenes serotype M1, UniProt P68771) (P68771 whole entry): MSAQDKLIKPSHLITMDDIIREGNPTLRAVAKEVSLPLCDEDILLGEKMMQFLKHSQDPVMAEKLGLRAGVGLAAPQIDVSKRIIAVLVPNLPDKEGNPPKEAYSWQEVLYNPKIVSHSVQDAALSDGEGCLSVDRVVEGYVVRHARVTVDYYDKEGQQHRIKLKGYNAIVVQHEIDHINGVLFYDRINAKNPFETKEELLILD

For `CN(c1ccccc1)C1CCN(C(=O)[C@@H](NC(=O)[C@H](CC2CCCC2)CN(O)C=O)C(C)(C)C)CC1` [Example 22, (R)-2-Cyclopentylmethyl-N-{(S)-2,2-dimethyl-1-[4-(methyl-phenyl-amino)-piperidine-1-carbonyl]-propyl}-3-(formyl-hydroxy-amino)-propionamide], the MIC was determined as 0.2 µg/mL (≈ 0.399 µM) in data set [1]; 0.05 µg/mL (≈ 0.0999 µM) in the data set with Streptococcus pyogenes; 0.2 µg/mL (≈ 0.399 µM) in data set [4]; 3.1 µg/mL (≈ 6.19 µM) in data set [6]; 0.05 µg/mL (≈ 0.0999 µM) in data set [7]. For the same compound, in [2], the LD50 at 14 days was > 2000 mg/kg. Further, the half-inhibitory concentration (IC50) at PDF enzyme [3] was 0.042 µM; against PDF enzyme [5] it was 0.025 µM; at PDF enzyme [8], 0.113 µM.
